Experiments:
[1] = target: T1, sigma receptor (Rattus norvegicus, UniProt Q9R0C9); assay: Radioreceptor assay in rat brain homogenate, displacement of [3H]-(+)-3-PPP; assay type: binding; conditions: rat brain membranes; 2 nM [3H]-(+)-3-PPP; 1 hr, room temperature; units ± SEM; read-out: Ki apparent
T1 construct: Brains from male Sprague-Dawley rats were homogenized; from tissue; host or cells: rat brain crude membranes (male Sprague-Dawley)
Description: Acad. Sci., 83, 8784-8788, 1986] to determine the relative potency of the compounds interacting with the sigma receptor. To determine the effects of the compounds in a sigma receptor assay, crude membrane preparations were prepared as follows. Brains from male Sprague-Dawley rats were homogenized in 10 volumes (wt/vol) of 0.32M sucrose, using a Polytron grinder. The homogenate was centrifuged at 900×G for 10 minutes at 4° C. The supernatant was collected and centrifuged at 22,000×g for 20 minutes at 4° C. The pellet was resuspended in 10 volumes of 50 mM Tris/HCl buffer (pH 7.4) and centrifuged at 22,000×g for 20 minutes at 4° C. The pellet was resuspended in 5 mM Tris/HCl buffer (pH 7.4) to give a final concentration of 250 mg/ml of the crude material. Incubation tubes were prepared in triplicate and contained 0.1 ml of tissue suspension, 2 nM of [^3 H]-(+)-1-propyl-3-(3-hydroxyphenyl)piperidine {[^3 H]-3-(+)-PPP}, and varying concentrations of the displacing ligand (0.1-1000 nM) in a final volume of 0.5 ml. After a 1 hr incubation at room temperature, the contents of the test tubes were filtered through GS filter paper which had been presoaked for at least 2 hours in 0.05% polyethyleneamine. The test tubes were rinsed three times with Tris/HCl buffer. Radioactivity on the filters was determined and […] were calculated from inhibition curves using the method of Cheng and Prusoff [Biochem. Pharmacol., 22, 3099-3108, 1973].

[2] = tested on: CA1 region of the hippocampus; assay: Forebrain ischemia assay (bilateral carotid occlusion); assay type: in vivo, Mongolian gerbil; conditions: 50 mg/kg i.p. 30 minutes prior to carotid occlusion (15 min); 7 days; p<0.01
Description: Male Mongolian gerbils, 50-70 gm, were used as subjects. Compound No. 8 (50 mg/kg) was injected i.p. 30 minutes prior to carotid occlusion into 6 gerbils. In preparation for surgical procedures, the animals were lightly anesthetized with halothane and placed upside down on a heated pad with their snout within a nosecone. Nitrous oxide (70%): oxygen (30%) plus 0.5% halothane was circulated through the nosecone to provide continuous anesthesia throughout the surgical procedure. A midline incision was made in the neck and the carotid arteries were exposed. A length of suture thread was placed under each carotid. The thread was then tightened around each carotid and pressure applied to the thread to insure flow as occluded. Flow was occluded for 15 minutes and then the thread was removed. The carotids were visually inspected to confirm that reflow had occurred. The wound was then closed with autoclips and the gerbils allowed to recover. Following surgery, the gerbils were kept alive for 7 days. […] The degree of lesion in the CA1 region of the hippocampus was quantified by counting the pyramidal cell bodies in a 0.5 mm length of CA1 on the section corresponding to P 1.7 mm in the atlas of Loskota, Lnax and Verity [W. J. Loskota et al, A Stereotaxic Atlas of the Mongolian Gerbil Brain, Ann Arbor Science Publishers, Ann Arber, p. […]

[3] = target: T2, sigma receptors (Cavia porcellus, UniProt Q60492); assay: Radioreceptor assay in guinea pig brain homogenate (P2 membranes), [3H]-(+)-3-PPP; assay type: binding
T2 construct: crude synaptosomal (P2) membrane fraction of guinea pig brain for sigma receptors; tissue Pel-Freeze, Rogers, Ak; host or cells: guinea pig brain minus cerebellum, crude synaptosomal (P2) membranes

[4] = tested on: apomorphine-induced climbing; assay: Blockage of apomorphine-induced climbing; assay type: in vivo, mouse (Swiss-Webster); conditions: 10 mg/kg; apomorphine 2 mg/kg s.c.; i.p. or s.c. pretreatment
Description: Compounds of the invention were evaluated for their ability to block apomorphine-induced climbing. The evaluation of the compounds followed the method outlined by Protais [Psychopharmcol., 50, 1-6, 1976]. Swiss-Webstermice, weighing 20-25 g, are pretreated with the compounds of the invention by i.p. or s.c. administration at various times before 2 mg/kg apomorphine is administered s.c. in a volume of 1 ml/kg. All test compounds are administered in a volume of 10 ml/kg. Mice are rated at 10 and 20 minutes after apomorphine administration using the following rating scale: (0) forepaws on the floor, (1) forefeet holding the bars, and (2) four paws holding bars. Dose-response curves are analyzed by a computerized Finney assay [Statistical Methods in Biological Assays, 2nd Edn., Hatner Pub. Co., New York (1964)].

T1 sequence (Q9R0C9 whole entry): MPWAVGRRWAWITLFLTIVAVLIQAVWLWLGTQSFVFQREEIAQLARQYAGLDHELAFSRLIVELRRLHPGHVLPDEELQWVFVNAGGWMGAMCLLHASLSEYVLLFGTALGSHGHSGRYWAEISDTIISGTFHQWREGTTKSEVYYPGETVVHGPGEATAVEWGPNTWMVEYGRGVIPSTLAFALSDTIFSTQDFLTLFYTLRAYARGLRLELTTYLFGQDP
T2 sequence (Q60492 whole entry): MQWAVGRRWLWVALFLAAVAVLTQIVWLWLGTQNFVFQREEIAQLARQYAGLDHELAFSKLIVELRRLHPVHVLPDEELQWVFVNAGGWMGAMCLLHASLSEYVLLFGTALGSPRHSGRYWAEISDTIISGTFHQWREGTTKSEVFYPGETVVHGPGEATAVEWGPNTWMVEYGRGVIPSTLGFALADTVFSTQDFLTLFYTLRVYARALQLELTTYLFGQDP

CN(CCc1ccc(Cl)c(Cl)c1)[C@@H]1CCCC[C@@H]1N1CCCC1 [Compound No. 8, 1R,2S-(+)-cis-N-[2-(3,4-dichlorophenyl)ethyl]-N-methyl-2-(1-pyrrolidinyl)cyclohexylamine]
Ki [1]: 0.02 ± 0.001 µM
Cell loss in CA1 region of hippocampus [2]: significantly reduced
Ki [3]: 0.006 ± 0.003 µM
Blockage of apomorphine-induced climbing [4]: completely blocked

Reference: patent US5739158A, “Nitrogen-containing cyclohetero cycloalkylaminoaryl derivatives for CNS disorders” (The United States of America as represented by the …, priority 1992, dated 1998)
